# Data: patent US6221874A, “Method of treating bone loss by stimulation of calcitonin” (American Home Products Corporation, priority 1999, dated 2001)
# pIC50: −log10 of the molar value.
# Tests used:
# [1] = system: Phosphodiesterase IV (PDE-IV) isolated from human U937 cells; test: Inhibition of Phosphodiesterase IV (PDE-IV) Isolated from Human U937 Cells; format: biochemical; conditions: for % Inhibition of PDE IV (normalized to rolipram): 1 μM [3H]-cAMP substrate; for pIC50: linear regression of percent inhibition data bracketing 50% inhibition
# [2] = system: promoter region of the human calcitonin gene (C1-3 reporter cells, TT human thyroid carcinoma); test: Calcitonin/Luciferase Reporter Gene Expression Assay (transcription activation ratio); format: cell-based; conditions: C13, 12 h, C1-3 cells, active if TAR>1.5, read-out: TAR (transcription activation ratio, luciferase activity with test compound vs untreated control)
# [3] = system: calcitonin secreted by the C1-3 cell line (TT medullary thyroid carcinoma); test: Calcitonin Secretion/RIA Assay; format: cell-based; conditions: Homo sapiens, C13, C1-3 cells, active if Secretion Ratio>2.5
# Description: Calcitonin Secretion/RIA Assay Protocol
# This assay was used to determine the ability of a compound to increase the amount of calcitonin secreted by the C1-3 cell line.
# Cell Line: C1-3 (Parent Cell Line: TT-medullary thyroid carcinoma),
# 1. Glass tubes were labeled to include Total Count (TC), Nonspecific Binding (NSB), Maximum Binding (Bo), Standards, Controls and Patient Sera in duplicate.
# 2. […] of Standard Zero (Reagent D) was added to tubes 3 through 6 (NSB and Bo).
# 3. […] of Standards* (Reagents E-1) was added to tubes 7-16 as follows:
# 4. […] of Patient Serum 1 was added to tubes 21 and 22, Patient Serum 2 was added to tubes 23 and 24, etc.
# 5. […] of Reagent L (NSB Buffer) was added to tubes 3 and 4.
# 6. […] of Reagent A (Anti-Calcitonin) was added to all tubes except tubes 1 & 2 (TC) and tube 3 & 4 (NSB). All tubes were vortexed, covered with parafilm or foil and incubated 44±6 hours at 2-8° C.
# 7. […] of 125.vertline.Calcitonin (Reagent B) was added to all tubes. All tubes were vortexed, covered with parafilm or foil and incubated 22±3 hours at 2-8° C.
# 8. Reagent C (Anti-Goat Precipitant) was mixed gently but thoroughly by inverting the vial several times before use. 1 mL Reagent C was added to all tubes except 1 and 2 (TC). Tubes were vortexed and incubated 20 minutes at room temperature.
# 9. All tubes were centrifuged at 1300-1500×g for 15 minutes at 2-8° C.
# 10. Supernatant was decanted immediately after centrifugation taking care to leave the precipitate intact.
# 11. Tubes were counted 4 minutes or longer.
# Secretion Ratio: Stimulation of calcitonin secretion is expressed as a ratio of secretion activity in the presence of test compound compared to the secretion activity in the untreated control: [formula]
# Secretion Activity: Compounds were designated active if Secretion Ratio>2.5.
# [4] = system: Ovarietomy Induced Osteopenia in Rats; test: Ovarietomy Induced Osteopenia in Rats (trabecular BMD); format: in vivo; conditions: Rattus norvegicus, 672 h; 30 mg/kg/day, ip; 4 weeks; n=8; * p < 0.005 vs. vehicle value (Examples 6, 12, 18); read-out: Percent Protection (trabecular BMD)
# [5] = cited from earlier work
# [6] = post-menopausal osteoporosis; cited from earlier work
compound,measurement,setting,value
"CCCCn1c(=O)c2c(ncn2S(=O)(=O)c2cccs2)n(CCCC)c1=O [Example 5, 1,3-Dibutyl-7-(thiophene-2-sulfonyl)-3,7-dihydro-purine-2,6-dione]",% Inhibition of PDE IV (normalized to rolipram),[1],52%
same,fold induction at 30 µM,[2],1.8
"CCCCn1c(=O)c2c(ncn2S(=O)(=O)c2cccc3ccccc23)n(CCCC)c1=O [Example 7, 1,3-Dibutyl-7-(naphthalene-1-sulfonyl)-3,7-dihydro-purine-2,6-dione]",% Inhibition of PDE IV (normalized to rolipram),[1],83%
same,fold induction at 30 µM,[3],4.5
same,inhibition in vivo at 30 mg/kg,[4],37%
same,fold induction at 30 µM,[2],2.5
"CCCCn1c(=O)c2c(ncn2S(=O)(=O)CCCC)n(CCCC)c1=O [Example 2, 7-(Butane-1-sulfonyl)-1,3-dibutyl-3,7-dihydro-purine-2,6-dione]",% Inhibition of PDE IV (normalized to rolipram),[1],97%
same,fold induction at 30 µM,[3],4.65
same,inhibition in vivo at 30 mg/kg,[4],23%
same,fold induction at 30 µM,[2],2.2
"CCCCn1c(=O)c2c(nc(C)n2S(=O)(=O)c2ccc(C)cc2)n(CCCC)c1=O [Example 20, 1,3-Dibutyl-8-methyl-7-(toluene-4-sulfonyl)-3,7-dihydro-purine-2,6-dione]",% Inhibition of PDE IV (normalized to rolipram),[1],58%
same,fold induction at 30 µM,[3],3.23
same,fold induction at 30 µM,[2],2
"CCCCn1c(=O)c2c(nc(C)n2S(=O)(=O)CCCCl)n(CCCC)c1=O [Example 19, 1,3-Dibutyl-7-(3-chloro-propane-1-sulfonyl)-8-methyl-3,7-dihydro-purine-2,6-dione]",% Inhibition of PDE IV (normalized to rolipram),[1],5%
same,fold induction at 30 µM,[3],4.09
same,fold induction at 30 µM,[2],1.7
"CCCCn1c(=O)n(CC=C(C)C)c(=O)c2c1ncn2S(=O)(=O)c1ccc(C)cc1 [Example 15, 3-Butyl-1-(3-methyl-but-2-enyl)-7-(toluene-4-sulfonyl)-3,7-dihydro-purine-2,6-dione]",pIC50,[1],5.28
same,% Inhibition of PDE IV (normalized to rolipram),[1],35%
same,fold induction at 30 µM,[3],3.74
same,inhibition in vivo at 30 mg/kg,[4],15%
same,fold induction at 30 µM,[2],2.1
"CCCCn1c(=O)c2c(ncn2S(=O)(=O)c2c(C)noc2C)n(CCCC)c1=O [Example 14, 1,3-Dibutyl-7-(3,5-dimethyl-isoxazole-4-sulfonyl)-3,7-dihydro-purine-2,6-dione]",% Inhibition of PDE IV (normalized to rolipram),[1],20%
same,fold induction at 30 µM,[3],3.3
same,fold induction at 30 µM,[2],2.5
"CCCCn1c(=O)n(CC)c(=O)c2c1ncn2S(=O)(=O)c1ccc(C)cc1 [Example 16, 3-Butyl-1-ethyl-7-(toluene-4-sulfonyl)-3,7-dihydro-purine-2,6-dione]",pIC50,[1],5.22
same,% Inhibition of PDE IV (normalized to rolipram),[1],38%
same,fold induction at 30 µM,[2],2.1
"CCCCn1c(=O)c2c(ncn2S(C)(=O)=O)n(CCCC)c1=O [Example 1, 1,3-Dibutyl-7-methanesulfonyl-3,7-dihydro-purine-2,6-dione]",pIC50,[1],4.60
same,% Inhibition of PDE IV (normalized to rolipram),[1],16%
same,fold induction at 30 µM,[3],4.65
same,fold induction at 30 µM,[2],2.1
"CCCCn1c(=O)c2c(ncn2S(=O)(=O)C[C@@]23CC[C@@H](CC2=O)C3(C)C)n(CCCC)c1=O [Example 10, 1,3-Dibutyl-7-(7,7-dimethyl-2-oxo-bicyclo[2.2. 1]hept-1-ylmethanesulfonyl)-3,7-dihydro-purine-2,6-dione]",% Inhibition of PDE IV (normalized to rolipram),[1],89%
same,fold induction at 30 µM,[3],4.5
same,inhibition in vivo at 30 mg/kg,[4],-10%
same,fold induction at 30 µM,[2],2
"CCCCn1c(=O)c2c(ncn2S(=O)(=O)c2c(C)cc(C)cc2C)n(CCCC)c1=O [Example 12, 1,3-Dibutyl-7-(2,4,6-trimethyl-benzenesulfonyl)-3,7-dihydro-purine-2,6-dione]",pIC50,[1],5.22
same,% Inhibition of PDE IV (normalized to rolipram),[1],42%
same,fold induction at 30 µM,[3],4.04
same,inhibition in vivo at 30 mg/kg,[4],50%
same,fold induction at 30 µM,[2],2.1
"CCCCn1c(=O)c2c(ncn2S(=O)(=O)Cc2ccccc2)n(CCCC)c1=O [Example 9, 1,3-Dibutyl-7-phenylmethanesulfonyl-3,7-dihydro-purine-2,6-dione]",pIC50,[1],5.49
same,% Inhibition of PDE IV (normalized to rolipram),[1],93%
same,fold induction at 30 µM,[3],5.1
same,inhibition in vivo at 30 mg/kg,[4],25%
same,fold induction at 30 µM,[2],2.3
"CCCCn1c(=O)c2c(ncn2S(=O)(=O)c2ccc(OC)c(OC)c2)n(CCCC)c1=O [Example 4, 1,3-Dibutyl-7-(3,4-dimethoxy-benzenesulfonyl)-3,7-dihydro-purine-2,6-dione]",pIC50,[1],5.92
same,% Inhibition of PDE IV (normalized to rolipram),[1],41%
same,fold induction at 30 µM,[3],4.7
same,inhibition in vivo at 30 mg/kg,[4],35%
same,fold induction at 30 µM,[2],2.5
"CCCCn1c(=O)n(CC=C(C)C)c(=O)c2c1ncn2S(=O)(=O)c1ccc(OC)c(OC)c1 [Example 17, 3-Butyl-7-(3,4-dimethoxy-benzenesulfonyl)-1-(3-methyl-but-2-enyl)-3,7-dihydro-purine-2,6-dione]",% Inhibition of PDE IV (normalized to rolipram),[1],24%
same,fold induction at 30 µM,[3],3.66
same,fold induction at 30 µM,[2],2.8
"CCCCn1c(=O)c2c(ncn2S(=O)(=O)c2cccc([N+](=O)[O-])c2)n(CCCC)c1=O [Example 3, 1,3-Dibutyl-7-(3-nitro-benzenesulfonyl)-3,7-dihydro-purine-2,6-dione]",% Inhibition of PDE IV (normalized to rolipram),[1],87%
same,fold induction at 30 µM,[3],1.65
same,inhibition in vivo at 30 mg/kg,[4],30%
same,fold induction at 30 µM,[2],2
calcitonin: 32 amino acid polypeptide hormone secreted by the parafollicular or C cells of the thyroid gland,oral bioavailability (in words),[5],lack of oral bioavailability
same,effect on bone mass and total body calcium,[6],maintenance of bone mass and total body calcium
same,incidence of hip and vertebral fractures,[6],decreases in the incidence of hip and vertebral fractures
"CCCCn1c(=O)c2c(ncn2S(=O)(=O)c2cc(C)c(Cl)cc2C)n(CCCC)c1=O [Example 18, 1,3-Dibutyl-7-(4-chloro-2,5-dimethyl-benzenesulfonyl)-3,7-dihydro-purine-2,6-dione]",pIC50,[1],4.63
same,% Inhibition of PDE IV (normalized to rolipram),[1],37%
same,fold induction at 30 µM,[3],5.32
same,inhibition in vivo at 30 mg/kg,[4],52%
same,fold induction at 30 µM,[2],2.5
"CCCCn1c(=O)c2c(ncn2S(=O)(=O)c2ccc(C(C)(C)C)cc2)n(CCCC)c1=O [Example 13, 1,3-Dibutyl-7-(4-tert-butyl-benzenesulfonyl)-3,7-dihydro-purine-2,6-dione]",% Inhibition of PDE IV (normalized to rolipram),[1],66%
same,fold induction at 30 µM,[3],5.1
same,inhibition in vivo at 30 mg/kg,[4],13%
same,fold induction at 30 µM,[2],1.8
"CCCCn1c(=O)c2c(ncn2S(=O)(=O)c2ccc(N(OC(C)=O)C(C)=O)cc2)n(CCCC)c1=O [Example 11, N-Acetoxy-N-[4-(1,3-dibutyl-2,6-dioxo-1,2,3,6-tetrahydro-purine-7-sulfonyl)-phenyl]-acetamide]",fold induction at 30 µM,[3],4.3
same,fold induction at 30 µM,[2],2.1
"CCCCn1c(=O)c2c(ncn2S(=O)(=O)c2ccc(NO)cc2)n(CCCC)c1=O [Example 8, 1,3-Dibutyl-7-(4-hydroxyamino-benzenesulfonyl)-3,7-dihydro-purine-2,6-dione]",% Inhibition of PDE IV (normalized to rolipram),[1],82%
same,fold induction at 30 µM,[3],5.4
same,inhibition in vivo at 30 mg/kg,[4],-2%
same,fold induction at 30 µM,[2],2
"CCCCn1c(=O)c2c(ncn2S(=O)(=O)CCCCl)n(CCCC)c1=O [Example 6, 1,3-Dibutyl-7-(3-chloro-propane-1-sulfonyl)-3,7-dihydro-purine-2,6-dione]",pIC50,[1],5.39
same,% Inhibition of PDE IV (normalized to rolipram),[1],44%
same,fold induction at 30 µM,[3],3.6
same,inhibition in vivo at 30 mg/kg,[4],47%
same,fold induction at 30 µM,[2],2
